Results as given in patent publication US7232904B2, “Crystal of arylethenesulfonamide derivative and preparation process thereof” (Astellas Pharma Inc., priority 2001, dated 2007).

How the values were obtained:
[1] = tested on: ET receptors, particularly an ETA receptor; conditions: competitively inhibits binding to ET receptors; cited from earlier work
[2] = hygroscopicity of crystals (FIGS. 10 to 12); format: physicochemical; conditions: for moisture absorbed / moisture absorbed, corresponding moles of water: extent of moisture absorption with increase of humidity; for humidity above which moisture is absorbed: humidity exceeded before moisture absorption
Excerpt: Also, FIGS. 10 to 12 show the hygroscopicity of the three kinds of novel crystals of the potassium salt of Compound A of the invention.

[3] = preservation stability in a reagent bottle; format: physicochemical; conditions: normal temperature, atmospheric pressure
Excerpt: Additionally, the α-type crystal, β-type crystal and γ-type crystal of the potassium salt of Compound A of the invention are morphologically pure. […] Moreover, since it is hardly electrified and is excellent in fluidity, it has advantages such that works are easy in adjusting solid formulations such as powders, granules, tablets, and capsules.

[4] = heat stability of crystals; format: physicochemical; conditions: high melting point
[5] = listed as α-type crystal of the potassium salt of Compound A
[6] = listed as β-type crystal of the potassium salt of Compound A
[7] = listed as γ-type crystal of the potassium salt of Compound A

In the case of COc1ccccc1Oc1c(NS(=O)(=O)/C=C/c2ccccc2)nc(-c2ncccn2)nc1OC.[K] [potassium salt of Compound A], the “affinity with ET receptors” value [1] is given as “high affinity”.
With COc1ccccc1Oc1c(NS(=O)(=O)/C=C/c2ccccc2)nc(-c2ncccn2)nc1OC.[K] [α-type crystal] the moisture absorbed [2, 5] was “about 6%”, the “moisture absorbed, corresponding moles of water” value (from here on “moisture absorbed … of water”) [2, 5] was 1.8 moles of water and the “humidity above which moisture is absorbed” value [2, 5] was “exceeded 65%”. For the same compound, the “stable in the preservation state” value [3] was “over 2 years”.
For COc1ccccc1Oc1c(NS(=O)(=O)/C=C/c2ccccc2)nc(-c2ncccn2)nc1OC.[K] [β-type crystal], the moisture absorbed [2, 6] was “about 4%”, the “moisture absorbed … of water” value [2, 6] was 1.2 moles of water and the “humidity above which moisture is absorbed” value [2, 6] was “exceeded 45%”. For the same compound, the “heat stability (in words)” value [4] was “excellent in heat stability”.
With COc1ccccc1Oc1c(NS(=O)(=O)/C=C/c2ccccc2)nc(-c2ncccn2)nc1OC.[K] [γ-type crystal] the moisture absorbed [2, 7] was “about 1%”, the “moisture absorbed … of water” value [2, 7] was 0.3 moles of water and the “heat stability (in words)” value [4] was “excellent in heat stability”.
